From patent publication EP2002836B1, “Cyclocondensed azaindoles active as kinase inhibitors” (Nerviano Medical Sciences S.r.l., priority 2007, dated 2008)

Test system: S6 ribosomal protein phosphorylation in MCF7
Assay: Inhibition of AKT induced S6 ribosomal protein phosphorylation in MCF7 (immunofluorescence, ArrayScan)
Assay type: cell-based
Details: Homo sapiens, MCF-7 cells, 4 hour treatment at 37°C, anti-phospho-S6 (Ser 235/236), read-out: S6 phosphorylation (Ser235/236) in MCF7-cell IC50
Protocol: MCF-7 cells (ATCC# HTB-22) were seeded in 96-well poly-lysine coated clear- and flat-bottomed black plates (Matrix Technologies Inc., Hudson, NH, USA), in E-MEM medium (MEM+ Earle's BSS + 2 mM glutamine + 0.1 mM non-essential amino acids) containing 10% of FCS at a density of 7000 cells/well, and incubated overnight at 37°C, 5% CO2, 100% relative humidity. After this incubation, cells were treated with increasing compound doses for 4 hour at 37°C. Afterwards, cells were fixed with PBS/3.7% paraformaldehyde for 15 min at room temperature, wash twice with 200 µl/well D-PBS and permeabilize with a D-PBS solution containing 0.1% Triton X-100 (Sigma-Aldrich, St. Louis, MO, USA) and 0.1 % powder Milk for 15 minutes (staining solution). […] Fluorescence images in the DAPI and Cy5™ channels were automatically acquired, stored and analysed using a Cellomics ArrayScan™ IV instrument (Cellomics, Pittsburgh, USA); the Cellomics Cytotoxicity Algorithm was used to quantify cytoplasmic fluorescence associated with phospho-S6 (Cy5™ signal parameter: "Mean Lyso Mass-pH") for each cell in 10 fields/well, and eventually expressed as a mean population value. […]

| IC50 | Structure (SMILES) |
| --- | --- |
| 13.5 µM | NC[C@H](Cc1ccccc1)NC(=O)C1=Cc2c[nH]c3nccc(c23)CC1 [Cpd. 1, N-[(1S)-2-amino-1-benzylethyl]-6,7-dihydro-2H-2,3-diazabenzo[cd]azulene-8-carboxamide] |
| 11.5 µM | O=C(N[C@H](CN1CCCC1)c1ccccc1)C1=Cc2c[nH]c3nccc(c23)CC1 [Cpd. 6, N-[(1S)-1-phenyl-2-pyrrolidin-1-ylethyl]-6,7-dihydro-2H-2,3-diazabenzo[cd]azulene-8-carboxamide] |
